Data from patent US20220028483A1, “SYSTEMS AND METHODS FOR CLASSIFYING TUMORS” (PRESIDENT AND FELLOWS OF HARVARD COLLEGE, priority 2018, published 2022).

Tested on: breast cancer cell lines
Experiment: Drug response (IC50, GDSC data) of breast cancer cell lines classified Signature 3-positive or -negative by SigMA
Format: cell-based
Conditions: five Signature 3-positive vs twelve Signature 3-negative breast cancer cell lines; p=0.044, Kolmogorov-Smirnov test
Source text: To test the hypothesis that the presence of Signature 3 indicates susceptibility to PARP inhibition, the response of diverse cancer cell lines was examed to the two popular PARP inhibitors olaparib and velirapib (Supplementary Methods Section 12). The disclosed SigMA example algorithm was first applied to 700 cell lines from the Cancer Cell Line Encyclopedia (CCLE) project (Basu et al., 2013) to identify those with Signature 3. Mutation calls from a 1651-gene panel and copy number calls from single-nucleotide polymorphism (SNP) arrays were available for each cell line. In applying SigMA, a stringent filter was used to discriminate the cell lines with Signature 3 mutations from those without Signature 3 but with a large number of in vitro culture-associated mutations (Online Methods and Supplementary Methods Section 12). Also, cell lines with MSI signatures were removed to minimize their confounding effect (see Vilar Sanchez et al. (2009), and Supplementary FIG. 6f). […]
Among 1074 cell lines in total, the mutational spectra of 700 cell lines were analyzed of major tumor types with SigMA, but only 136 of these had drug response data for either olaparib or veliparib. […]

fold decrease of IC50 values in Signature 3-positive vs Signature 3-negative cell lines: 2.6 fold
Structure (SMILES): O=C(c1cc(Cc2n[nH]c(=O)c3ccccc23)ccc1F)N1CCN(C(=O)C2CC2)CC1 [olaparib]
